Source: US20110060124A1, “HLA-BINDING PEPTIDES, PRECURSORS THEREOF, DNA FRAGMENTS AND RECOMBINANT VECTORS THAT CODE FOR THOSE PEPTIDE SEQUENCES” (priority 2004, published 2011)
Peptide text beside a SMILES is read from it.

Each molecule was assayed on HLA-A24 type molecule, product of the HLA-A*2402 gene (assay: Experiment of binding peptide to HLA-A24 type molecule (C1R-A24 cells, flow cytometry, Kd)). Settings: −log Kd value.
Parameters: species or system human
Protocol: After neutralization, purified β2m was added to C1R-A24 cells, and the obtained product was added to serial dilutions of a peptide, and incubated on ice for 4 hours.
Subsequently, the MHC-pep count per C1R-A24 cell (proportional to the strength of fluorescence of the above-mentioned fluorescent antibody) was quantitatively measured using an FACScan fluorescence-activated cell sorter (Becton Dickinson Biosciences). A binding dissociation constant Kd value between the HLA-A24 type molecule and the peptide was calculated from the average strength of fluorescence per cell by a published method (Udaka et al., Immunogenetics, 51, 816-828, 2000).
CC[C@H](C)[C@H](NC(=O)[C@@H]1CCCN1C(=O)[C@H](CC(=O)O)NC(=O)[C@H](Cc1ccccc1)NC(=O)[C@H](CO)NC(=O)[C@H](CC(=O)O)NC(=O)[C@H](CC(C)C)NC(=O)[C@@H](NC(=O)[C@@H](N)C(C)C)[C@@H](C)CC)C(=O)O [SEQ ID NO: 2] (H-VILDSFDPI-OH; N-terminus and C-terminus assumed) showed a binding experimental value of 5.324.
Molecule CC[C@H](C)[C@H](N)C(=O)N[C@H](C(=O)N[C@@H](Cc1ccc(O)cc1)C(=O)N[C@@H](CO)C(=O)N[C@H](C(=O)N[C@@H](Cc1ccc(O)cc1)C(=O)NCC(=O)N[C@@H](CCCCN)C(=O)N[C@@H](Cc1ccccc1)C(=O)O)[C@@H](C)O)[C@@H](C)O [SEQ ID NO: 107] (H-ITYSTYGKF-OH; N-terminus and C-terminus assumed) has a binding experimental value of 6.374.
CC[C@H](C)[C@H](N)C(=O)N[C@H](C(=O)N[C@@H](Cc1ccc(O)cc1)C(=O)N[C@@H](CO)C(=O)N[C@H](C(=O)N[C@@H](Cc1ccc(O)cc1)C(=O)N[C@@H](CS)C(=O)N[C@@H](CCCCN)C(=O)N[C@@H](Cc1ccccc1)C(=O)O)[C@@H](C)O)[C@@H](C)O [SEQ ID NO: 40] (H-ITYSTYCKF-OH; N-terminus and C-terminus assumed) was tested, and the binding experimental value was 6.975.
